Measured values: ChEMBL document CHEMBL1201862, “PubChem BioAssay data set” (2004)
Calls of active or inactive are those of the source.

Key:
Leucine aminopeptidase = molecular target: T1, Leucine aminopeptidase (Plasmodium falciparum 3D7, UniProt Q8IL11); experiment: P. falciparum M17LAP inhibitors, primary screen, biochemical, fluorogenic H-Leu-NHMec substrate, 1536-well (AID 1619); type: functional
T1 sequence (Q8IL11 whole entry): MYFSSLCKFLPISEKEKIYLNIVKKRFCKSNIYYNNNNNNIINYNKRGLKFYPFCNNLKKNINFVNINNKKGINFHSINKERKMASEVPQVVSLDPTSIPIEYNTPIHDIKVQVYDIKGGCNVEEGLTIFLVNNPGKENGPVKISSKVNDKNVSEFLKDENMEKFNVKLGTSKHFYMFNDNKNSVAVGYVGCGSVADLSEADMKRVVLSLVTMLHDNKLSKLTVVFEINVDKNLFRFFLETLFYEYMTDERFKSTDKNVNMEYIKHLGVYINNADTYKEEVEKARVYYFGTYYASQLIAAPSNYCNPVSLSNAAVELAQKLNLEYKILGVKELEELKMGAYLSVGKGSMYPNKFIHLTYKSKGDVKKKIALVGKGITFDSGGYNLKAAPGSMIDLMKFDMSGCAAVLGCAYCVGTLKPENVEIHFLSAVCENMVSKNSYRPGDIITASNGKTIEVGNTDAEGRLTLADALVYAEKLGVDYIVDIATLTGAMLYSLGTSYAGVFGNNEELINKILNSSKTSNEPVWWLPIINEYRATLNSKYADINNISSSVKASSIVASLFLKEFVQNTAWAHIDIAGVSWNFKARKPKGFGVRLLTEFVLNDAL

Cytochrome P450 2C19 = Cytochrome P450 2C19 (Homo sapiens, UniProt P33261); experiment: Cytochrome panel assay with activity outcomes. Panel member name: p450-cyp2c19 Compounds with AC50 equal or less than 10 uM are considered active; type: functional; conditions: read-out: AC50
Cytochrome P450 2C9 = Cytochrome P450 2C9 (Homo sapiens, UniProt P11712)
[1] = NIH:OVCAR-3 ovarian cancer cell cytotoxicity, dose response, PAX8 inhibitor project, plate reader, dry powder samples (AID 743044); type: functional, cell-based
Paired box protein Pax-8 = Paired box protein Pax-8 (Homo sapiens, UniProt Q06710); experiment: inhibitors of PAX8-driven TPO luciferase reporter, dose response, RMG-I cells, cherry-pick (AID 687027); type: functional, cell-based;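 note: luciferase reporter driven by Pax8 target thyroperoxidase promoter measured by SteadyGlo luminescence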
Caspase-6 = molecular target: T2, Caspase-6 (Homo sapiens, UniProt P55212); experiment: human caspase-6 inhibitors, dose response, biochemical, VEID-R110 fluorescence, cherry-pick (AID 720632)
T2 sequence (P55212 whole entry): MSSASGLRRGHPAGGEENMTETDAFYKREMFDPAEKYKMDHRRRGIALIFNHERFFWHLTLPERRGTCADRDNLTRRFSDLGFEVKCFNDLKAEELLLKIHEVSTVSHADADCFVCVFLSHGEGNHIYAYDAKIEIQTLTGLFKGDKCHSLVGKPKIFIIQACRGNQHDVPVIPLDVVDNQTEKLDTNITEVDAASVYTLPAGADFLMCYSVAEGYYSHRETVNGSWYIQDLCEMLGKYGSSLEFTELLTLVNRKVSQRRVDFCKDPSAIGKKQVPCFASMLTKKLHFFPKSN

Coagulation factor XII = molecular target: T3, Coagulation factor XII (Homo sapiens, UniProt P00748); type: functional;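 note: activated factor XIIa alpha cleaving a fluorogenic AMC peptide substrate; inhibitor potency from loss of enzyme activity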
T3 sequence (P00748 whole entry): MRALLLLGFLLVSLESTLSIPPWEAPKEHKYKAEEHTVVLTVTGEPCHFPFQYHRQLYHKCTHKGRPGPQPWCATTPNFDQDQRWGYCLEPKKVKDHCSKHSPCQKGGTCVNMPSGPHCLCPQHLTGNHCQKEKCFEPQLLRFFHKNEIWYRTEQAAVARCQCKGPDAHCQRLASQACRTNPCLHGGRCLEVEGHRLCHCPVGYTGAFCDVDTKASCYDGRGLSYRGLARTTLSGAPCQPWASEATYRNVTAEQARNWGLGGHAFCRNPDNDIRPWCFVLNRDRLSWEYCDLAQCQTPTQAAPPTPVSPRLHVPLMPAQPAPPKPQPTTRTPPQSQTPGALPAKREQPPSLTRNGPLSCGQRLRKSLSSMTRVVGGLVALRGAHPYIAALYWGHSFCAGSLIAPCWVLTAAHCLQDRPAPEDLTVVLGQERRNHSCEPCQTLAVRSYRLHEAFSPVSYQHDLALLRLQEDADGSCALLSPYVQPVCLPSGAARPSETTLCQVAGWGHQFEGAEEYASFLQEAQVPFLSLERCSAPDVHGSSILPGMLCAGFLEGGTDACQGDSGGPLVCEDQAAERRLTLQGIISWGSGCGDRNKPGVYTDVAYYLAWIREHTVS

[2] = Shn3 3'UTR reporter inhibitors, dose response, cell-based, Clone20 osteoblasts, firefly luciferase, cherry-picked (AID 624132); type: functional;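 note: firefly luciferase luminescence from reporter carrying the Shn3 3'UTR in osteoblasts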
Genome polyprotein = Genome polyprotein (dengue virus type 2, UniProt P29990); experiment: Dengue-2 NS5 methyltransferase inhibitors, primary screen, biochemical, confirmation dose response (AID 588689); type: functional
Protein RecA = molecular target: T4, Protein RecA (Mycobacterium tuberculosis, UniProt P9WHJ3); experiment: Fluorescence Cell-Free Homogeneous Dose Retest to Identify Inhibitors of RecA-Intein Splicing Activity. [Related pubchem assays (depositor defined):AID2097, AID2223, AID489010, AID492950]; type: functional
T4 sequence (P9WHJ3 whole entry): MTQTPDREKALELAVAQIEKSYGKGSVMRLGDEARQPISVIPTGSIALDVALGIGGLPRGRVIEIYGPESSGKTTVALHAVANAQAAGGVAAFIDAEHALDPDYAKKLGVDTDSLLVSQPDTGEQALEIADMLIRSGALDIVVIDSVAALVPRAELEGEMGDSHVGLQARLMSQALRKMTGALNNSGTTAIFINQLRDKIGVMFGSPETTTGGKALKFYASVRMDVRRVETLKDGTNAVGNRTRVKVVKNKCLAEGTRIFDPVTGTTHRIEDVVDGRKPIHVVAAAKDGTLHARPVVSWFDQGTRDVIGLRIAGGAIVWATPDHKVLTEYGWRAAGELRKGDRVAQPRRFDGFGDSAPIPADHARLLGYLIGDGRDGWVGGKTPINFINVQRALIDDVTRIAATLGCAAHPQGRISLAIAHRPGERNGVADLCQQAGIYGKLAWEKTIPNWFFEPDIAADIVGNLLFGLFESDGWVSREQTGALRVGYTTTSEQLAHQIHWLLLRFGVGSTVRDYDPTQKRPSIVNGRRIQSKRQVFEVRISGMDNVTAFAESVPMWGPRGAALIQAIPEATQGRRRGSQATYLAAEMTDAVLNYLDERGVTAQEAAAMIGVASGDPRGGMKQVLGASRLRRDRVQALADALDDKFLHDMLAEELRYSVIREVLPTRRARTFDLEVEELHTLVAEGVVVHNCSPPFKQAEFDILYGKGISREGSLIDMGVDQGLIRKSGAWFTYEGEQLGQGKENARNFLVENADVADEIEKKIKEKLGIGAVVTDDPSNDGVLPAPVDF

[3] = molecular target: T5, Replicative DNA helicase DnaB (Mycobacterium tuberculosis, UniProt P9WMR3); experiment: DnaB intein splicing inhibitors, dose response, biochemical, cell-free fluorescence (AID 449749); type: functional
T5 sequence (P9WMR3 whole entry): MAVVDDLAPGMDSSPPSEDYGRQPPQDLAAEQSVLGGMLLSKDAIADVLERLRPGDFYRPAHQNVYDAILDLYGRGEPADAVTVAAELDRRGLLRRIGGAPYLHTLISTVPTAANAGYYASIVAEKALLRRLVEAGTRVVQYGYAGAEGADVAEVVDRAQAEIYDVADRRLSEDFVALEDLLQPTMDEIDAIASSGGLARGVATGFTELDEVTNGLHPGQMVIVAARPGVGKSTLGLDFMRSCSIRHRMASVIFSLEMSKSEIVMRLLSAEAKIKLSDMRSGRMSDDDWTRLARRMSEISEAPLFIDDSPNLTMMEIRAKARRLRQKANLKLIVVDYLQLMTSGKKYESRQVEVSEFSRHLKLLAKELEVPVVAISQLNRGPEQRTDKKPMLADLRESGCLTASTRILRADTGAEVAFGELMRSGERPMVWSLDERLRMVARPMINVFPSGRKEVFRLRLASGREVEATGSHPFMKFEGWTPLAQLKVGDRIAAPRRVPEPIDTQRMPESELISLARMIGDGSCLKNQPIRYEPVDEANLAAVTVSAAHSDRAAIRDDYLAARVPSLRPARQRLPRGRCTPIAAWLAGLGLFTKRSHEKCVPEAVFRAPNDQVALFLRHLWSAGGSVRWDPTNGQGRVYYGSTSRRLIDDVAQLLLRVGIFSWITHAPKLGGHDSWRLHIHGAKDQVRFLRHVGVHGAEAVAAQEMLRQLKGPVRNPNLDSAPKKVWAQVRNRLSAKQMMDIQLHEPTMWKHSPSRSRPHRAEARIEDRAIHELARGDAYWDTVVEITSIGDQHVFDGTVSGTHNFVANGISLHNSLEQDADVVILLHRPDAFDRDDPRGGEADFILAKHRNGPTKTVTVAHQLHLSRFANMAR

[4] = cytotoxicity in OVCAR8 ovarian cancer cells, dose response, PAX8 project, cell-based, plate reader, dry powder samples (AID 743197); type: functional; conditions: OVCAR-8

Sequence of Genome polyprotein (P29990 2492-3391 limits assumed): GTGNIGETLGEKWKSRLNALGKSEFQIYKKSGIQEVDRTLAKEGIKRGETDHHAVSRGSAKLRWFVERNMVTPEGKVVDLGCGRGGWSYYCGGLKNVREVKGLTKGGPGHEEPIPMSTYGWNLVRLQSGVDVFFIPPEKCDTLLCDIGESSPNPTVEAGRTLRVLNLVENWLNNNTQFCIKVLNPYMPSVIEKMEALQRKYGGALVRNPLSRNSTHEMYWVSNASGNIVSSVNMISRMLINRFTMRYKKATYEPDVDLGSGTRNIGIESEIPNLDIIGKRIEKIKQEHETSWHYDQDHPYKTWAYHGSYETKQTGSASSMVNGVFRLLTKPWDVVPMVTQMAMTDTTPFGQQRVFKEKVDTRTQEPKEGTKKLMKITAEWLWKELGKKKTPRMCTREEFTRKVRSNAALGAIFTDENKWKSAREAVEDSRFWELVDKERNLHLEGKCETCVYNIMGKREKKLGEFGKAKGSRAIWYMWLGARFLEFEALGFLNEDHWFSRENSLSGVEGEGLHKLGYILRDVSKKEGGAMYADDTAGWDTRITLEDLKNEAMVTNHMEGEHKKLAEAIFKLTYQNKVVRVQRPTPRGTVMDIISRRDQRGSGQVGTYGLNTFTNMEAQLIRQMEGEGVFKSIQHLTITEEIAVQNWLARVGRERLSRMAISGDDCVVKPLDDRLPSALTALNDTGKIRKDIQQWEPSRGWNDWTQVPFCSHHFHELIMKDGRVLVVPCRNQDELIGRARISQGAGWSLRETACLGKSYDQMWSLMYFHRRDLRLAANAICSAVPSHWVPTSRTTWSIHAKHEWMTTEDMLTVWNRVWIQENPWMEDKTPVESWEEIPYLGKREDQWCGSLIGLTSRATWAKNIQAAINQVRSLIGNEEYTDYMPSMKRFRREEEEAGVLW
Sequence of Paired box protein Pax-8 (Q06710 whole entry): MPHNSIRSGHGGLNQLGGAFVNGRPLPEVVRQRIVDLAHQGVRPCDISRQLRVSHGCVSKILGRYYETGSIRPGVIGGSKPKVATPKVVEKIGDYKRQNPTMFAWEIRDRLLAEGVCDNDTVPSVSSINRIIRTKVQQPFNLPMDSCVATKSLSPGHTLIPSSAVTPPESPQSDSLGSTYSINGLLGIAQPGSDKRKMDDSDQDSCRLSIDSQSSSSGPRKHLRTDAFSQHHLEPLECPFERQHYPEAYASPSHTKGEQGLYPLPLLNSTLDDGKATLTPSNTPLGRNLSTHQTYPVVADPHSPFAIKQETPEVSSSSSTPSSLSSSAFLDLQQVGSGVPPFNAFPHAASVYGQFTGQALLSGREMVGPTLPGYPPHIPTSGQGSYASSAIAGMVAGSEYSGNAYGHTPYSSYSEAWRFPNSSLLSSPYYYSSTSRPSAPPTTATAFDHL
Sequence of Cytochrome P450 2C19 (P33261 whole entry): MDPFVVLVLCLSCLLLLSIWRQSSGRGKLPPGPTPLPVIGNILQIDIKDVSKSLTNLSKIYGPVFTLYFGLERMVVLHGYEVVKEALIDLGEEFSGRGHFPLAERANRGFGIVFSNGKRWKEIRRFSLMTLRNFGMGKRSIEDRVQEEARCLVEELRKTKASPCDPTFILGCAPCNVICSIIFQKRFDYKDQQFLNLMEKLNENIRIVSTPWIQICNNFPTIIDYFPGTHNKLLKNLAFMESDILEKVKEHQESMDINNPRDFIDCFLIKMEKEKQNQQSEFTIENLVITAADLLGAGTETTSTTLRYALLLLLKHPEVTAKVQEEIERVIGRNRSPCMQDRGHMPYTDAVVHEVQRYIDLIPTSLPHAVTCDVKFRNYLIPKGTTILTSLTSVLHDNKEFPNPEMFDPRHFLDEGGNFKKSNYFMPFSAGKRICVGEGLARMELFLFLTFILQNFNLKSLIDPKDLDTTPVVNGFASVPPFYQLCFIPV
Sequence of Cytochrome P450 2C9 (P11712 whole entry): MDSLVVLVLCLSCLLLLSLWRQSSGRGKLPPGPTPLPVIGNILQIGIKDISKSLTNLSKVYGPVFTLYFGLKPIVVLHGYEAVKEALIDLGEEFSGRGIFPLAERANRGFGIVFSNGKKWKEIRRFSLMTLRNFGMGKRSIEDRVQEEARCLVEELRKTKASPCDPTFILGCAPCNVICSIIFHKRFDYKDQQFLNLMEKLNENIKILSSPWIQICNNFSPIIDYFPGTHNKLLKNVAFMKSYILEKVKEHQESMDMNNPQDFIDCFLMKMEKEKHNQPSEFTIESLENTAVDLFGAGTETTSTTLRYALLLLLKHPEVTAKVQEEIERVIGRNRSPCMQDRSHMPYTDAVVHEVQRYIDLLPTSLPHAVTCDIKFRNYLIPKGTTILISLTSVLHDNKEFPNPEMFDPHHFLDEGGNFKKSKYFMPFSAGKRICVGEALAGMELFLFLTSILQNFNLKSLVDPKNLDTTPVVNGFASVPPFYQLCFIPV

CCOc1ccc(NC(=O)CN2C(=O)C3CC=CCC3C2=O)cc1 (stereo unspecified)
IC50 (Leucine aminopeptidase): 3.86 µM (active)

O=C(NC(Cc1ccc2c(c1)OCO2)C(=O)NC(Cc1ccccc1)C(=O)O)c1ccccc1 (stereo unspecified)
IC50 (Leucine aminopeptidase): 19.7 µM (active)

CCC(C)[C@H](NC(=O)Nc1ccc(Oc2ccccc2)cc1)C(=O)O (stereo partly specified)
IC50 (Leucine aminopeptidase): 21.8 µM (active)
AC50 (Cytochrome P450 2C19): 5.62 µM (inconclusive)
AC50 (Cytochrome P450 2C9): 8.91 µM (inconclusive)

C/C(CC1CC(C)(C)OC1=O)=N/Nc1nc(-c2ccccc2)cs1 (stereo unspecified)
IC50 (Leucine aminopeptidase): 52.8 µM (active)

C[C@H](CO)N1C[C@H](C)[C@H](CN(C)CC2CCCCC2)Oc2ccc(NS(=O)(=O)c3ccc(Cl)cc3)cc2CC1=O
AC50 [1]: 58.6 µM (active)
AC50 (Paired box protein Pax-8): 7.77 µM (active)

CSc1ccc(CN2CCC(C)(Oc3cnc(Cl)c4ccccc34)C2)cc1 (stereo unspecified)
AC50 (Caspase-6): 46 µM (active)

O=C(O)CC(=O)Nc1ccccc1C(=O)O
IC50 (Coagulation factor XII): > 50 µM (inactive)

C=CCOC(=O)C1=C(C)N=C2SCCC(=O)N2C1c1cccs1 (stereo unspecified)
AC50 [2]: > 70 µM (inactive)
IC50 (Coagulation factor XII): > 50 µM (inactive)

CCN(CCCNc1cc2c(c(N)c1S(=O)(=O)O)C(=O)c1ccccc1C2=O)c1ccccc1
IC50 (Genome polyprotein): 31.6 µM (active)

Cc1cc(C)c(C#N)c(SCC(O)CS(=O)(=O)Cc2ccccc2)n1 (stereo unspecified)
IC50 (Leucine aminopeptidase): 31.5 µM (active)

CCOC(=O)CC1=NN(c2ccccc2)C(=O)/C1=C\c1ccc(OC)cc1OC
EC50 (Protein RecA): 0.104 µM (active)
IC50 (Genome polyprotein): 27.1 µM (active)
AC50 [3]: 0.805 µM (active)

c1csc(-c2nc3ccccc3[nH]2)c1
IC50 (Coagulation factor XII): > 50 µM (inactive)

O=Cc1ccc(OCC(=O)Nc2ccccc2C(F)(F)F)cc1
IC50 (Coagulation factor XII): > 50 µM (inactive)

CC1=NN(c2ccccc2)C(=O)C1=Cc1ccccc1
IC50 (Genome polyprotein): 59.4 µM (active)

C[C@H]1CCCCO[C@H](CN(C)Cc2ccc(C(F)(F)F)cc2)[C@@H](C)CN([C@@H](C)CO)C(=O)c2cc(NS(=O)(=O)c3ccc(F)cc3)ccc2O1
AC50 [1]: 44.9 µM (active)
AC50 (Paired box protein Pax-8): 9.73 µM (active)
AC50 [4]: 43.6 µM (active)

COc1cccc2sc(/N=C/N(C)C)nc12
IC50 (Coagulation factor XII): > 50 µM (inactive)

COc1ccc(Cl)cc1/C=C1/C(=O)ON=C1C
IC50 (Genome polyprotein): > 100 µM (active)

COc1cc(C)c(S(=O)(=O)NCc2cccs2)cc1C
IC50 (Coagulation factor XII): > 50 µM (inactive)
